From PMC8344022, “Small-molecule inhibitor of AF9/ENL-DOT1L/AF4/AFF4 interactions suppresses malignant gene expression and tumor growth” (Theranostics, 2021)
No end group written: not given here.

How the values were obtained:
Assay type in all cases: binding
[1] = molecular target: T1, AF9-DOT1L interaction (Homo sapiens, UniProt P42568); test: Alpha assay, AF9 AHD-DOT1L peptide interaction; details: read-out: IC50, inhibition of AF9-DOT1L interaction
T1 construct: cDNA for human AF9 AHD domain (475-568) and ENL AHD domain (489-559) was synthesized; made in house; host or cells: E. coli BL21(DE3)
T1 sequence (P42568 475-568): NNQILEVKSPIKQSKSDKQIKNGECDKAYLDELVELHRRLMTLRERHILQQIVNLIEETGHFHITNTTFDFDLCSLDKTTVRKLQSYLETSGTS
Source text: (§1) We developed an Alpha (amplified luminescent proximity homogeneous assay) assay to determine the binding and inhibition of the PPI between maltose-binding protein (MBP)-tagged AF9 AHD and a biotin-labeled DOT1L peptide, using AlphaLisa streptavidin donor beads and anti-MBP acceptor beads. Laser excitation to the donor beads generates singlet oxygen radicals, which can travel for <200 nm in solution and cannot reach the free acceptor beads. The PPI brings the DOT1L coated donor beads and AHD coated acceptor beads together, allowing the radicals to activate the acceptor beads and produce luminescence. […] We also developed a fluorescence polarization (FP) assay. A fluorescein-labeled DOT1L peptide has a higher freedom in solution with a lower polarization value.
(§2) Alpha assays. Alpha assays were developed using Perkin-Elmer AlphaLisa anti-MBP kit, which contains streptavidin donor beads and anti-MBP acceptor beads. The assay was performed using a MBP-protein (5 nM), a biotinylated peptide (40 nM), and increasing concentrations of a compound in 25 µL buffer (PBS with 0.5 % BSA, pH 7.5) in 384-well plates according to the manufacturer's protocol and measured with a Tecan SPARK microplate reader. Data were imported into Prism (version 5.0), and IC50 values from 3 independent experiments with standard deviation were obtained by using a standard dose-response curve fitting.

[2] = molecular target: T2, AF9-AF4 interaction (Homo sapiens, UniProt P42568); test: Alpha assay, AF9-AF4 interaction; details: read-out: IC50, inhibition of AF9-AF4 interaction
T2 construct: cDNA for human AF9 AHD domain (475-568) and ENL AHD domain (489-559) was synthesized; made in house; host or cells: E. coli BL21(DE3)
Description: (§3) ENL is also a major MLL fusion partner (~10%). The AHD domains of human ENL and AF9 share a high homology with 82% identity and 89% similarity (Figure S1A). […] Our attempts to develop an Alpha assay for ENL-DOT1L failed. […] Compound 1's activity against ENL-DOT1L was therefore not determined.
as §2

[3] = molecular target: T3, AF9-AFF4 interaction (Homo sapiens, UniProt P42568); test: Alpha assay, AF9-AFF4 interaction; details: read-out: IC50, inhibition of AF9-AFF4 interaction
T3 construct: cDNA for human AF9 AHD domain (475-568) and ENL AHD domain (489-559) was synthesized; made in house; host or cells: E. coli BL21(DE3)
Description: as §3, §2

[4] = molecular target: T4, ENL-AF4 interaction (Homo sapiens, UniProt Q03111); test: Alpha assay, ENL-AF4 interaction; details: read-out: IC50, inhibition of ENL-AF4 interaction
T4 construct: ENL AHD domain (489-559) was synthesized (by Genscript) and inserted into the pMAL c5X expression plasmid; made in house; host or cells: E. coli BL21(DE3)
T4 sequence (Q03111 489-559): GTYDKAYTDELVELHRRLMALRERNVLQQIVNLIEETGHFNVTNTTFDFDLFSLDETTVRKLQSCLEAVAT
Description: as §3, §2

[5] = molecular target: T5, ENL-AFF4 interaction (Homo sapiens, UniProt Q03111); test: Alpha assay, ENL-AFF4 interaction; details: read-out: IC50, inhibition of ENL-AFF4 interaction
T5 construct: ENL AHD domain (489-559) was synthesized (by Genscript) and inserted into the pMAL c5X expression plasmid; made in house; host or cells: E. coli BL21(DE3)
T5 sequence (Q03111 489-559): as above
Description: as §3, §2

[6] = molecular target: T1, AF9-DOT1L interaction; test: Fluorescence polarization (FP) inhibition assay, AF9-DOT1L
Source text: as §1
Fluorescence polarization assay. It was performed in 96-well black microplates with each well containing a Fluorescein-labeled peptide (2 nM) and increasing concentration of a AF9/ENL protein in a buffer (20 mM HEPES, pH 7.5, 0.01% Triton X-100, 100 µL) for Kd determination. For IC50 determination, a Fluorescein-labeled peptide (2 nM), AF9/ENL protein (100 nM) and increasing concentration of a compound in the same buffer were placed in each well. Upon incubation of 1h, the FP value of each well was determined using a Tecan SPARK microplate reader. Data were similarly processed to obtain Kd or IC50 values.

- IC50 [1]: 13 ± 1 nM
- IC50 [2]: 60 ± 12 nM
- IC50 [3]: 95 ± 16 nM
- IC50 [4]: 13.2 ± 1.1 µM
- IC50 [5]: 2000 ± 100 nM
- IC50 [6]: 72 nM
Sequence: NKLPVSIPLASVVLPSRAERARST [DOT1L]
